Experimental data: US20070154457A1, “Use of eIF-5A to kill multiple myeloma cells” (Senesco Technologies, Inc., priority 2005, published 2007)
Starred links: 1 amine or outer side, 2 acyl side, 3 side chain; linkers in the order of their positions; H or OH if unused. Positions of bridges follow the written chain, without caps; N, C: chain ends. Non-standard residues stand in square brackets, D forms with d. Residues, ends and D or L forms follow the SMILES beside them. Chains are numbered I, II in the order given. Actinocin(9to1) = Cc1c2oc3c(C)ccc(C(=O)[*:1])c3nc-2c(C(=O)[*:2])c(N)c1=O; NMeV = CN[C@H](C(=O)O)C(C)C; Sar = CNCC(=O)O

How the values were obtained:
p53 = assay: Western blot of p53 and phosphorylated p53 in A549 cells; format: cell-based; conditions: A549, inhibitor added 4 hours after infection (U1026 10 μM, Pifithrin-a 30 μM)
Protocol: (§1) Western blotting of lysate from A549 cells used for MAPK/SAPK pathway analysis was performed using lysate collected in MAPK lysis buffer (10 mM Tris-pH 7.4, 2% SDS, 10% glycerol). Ten micrograms of lysate was separated on 10% SDS-PAGE gels and transferred to a PVDF membrane. The membrane was blocked for one hour in 5% non-fat skim milk in PBS, washed with PBS and incubated with primary antibody at 1:1000 in 5% BSA/PBS-T overnight at 4° C. with shaking. The MAPK/SAPK antibodies (P-p38, p38, P-JNK, JNK, P-ERK, ERK, p90RSK) were purchased from Cell Signaling. The p53 antibodies used in the A549 study were also obtained from Cell Signaling and used in a similar fashion.
A549 lung carcinoma cells were infected with either an adenovirus expressing LacZ (Lac) or eIF5A1 (5A). Four hours after infection, the media was replaced with media containing either DMSO, 10 μM of the p38 inhibitor SB203580 (Calbiochem), 10 μM of the JNK inhibitor II (Calbiochem), 10 μM of the MEK inhibitor U1026 (Calbiochem), or 30 μM of the p53 inhibitor Pifithrin-a (Calbiochem). Forty-eight hours later, the cells were treated with EGF for 30 minutes and the cell lysate was harvested. Western blots were performed on the lysate using antibodies directed against either total p53 (p53), or p53 phosphorylated on serine 15 [P-p53(ser15)], or p53 phosphorylated on 37 [P-p53(ser37)].

[1] = tested on: A549 lung carcinoma cells; assay: Annexin/PI apoptosis by flow cytometry, A549 cells; format: cell-based; conditions: A549 infected with Ad-eIF5A1; JNK inhibitor II 10 μM, U1026 10 μM, Pifithrin-a 30 μM
Protocol: A549 lung carcinoma cells were infected with either an adenovirus expressing LacZ (Lac) or eIF5A1 (5A). Four hours after infection, the media was replaced with media containing either DMSO, 10 μM of the p38 inhibitor SB203580 (Calbiochem), 10 μM of the JNK inhibitor II (Calbiochem), 10 μM of the MEK inhibitor U1026 (Calbiochem), or 30 μM of the p53 inhibitor Pifithrin-a (Calbiochem). Forty-eight hours later, the cells were harvested and the percentage of cells undergoing apoptosis was determined by Annexin/PI staining (BD Bioscience) followed by analysis by flow cytometry.

[2] = tested on: MAPK/SAPK signaling pathways; assay: Western blot of MAPK/SAPK pathway activation in A549 cells; format: cell-based; conditions: A549 infected with Ad-eIF5A1 or Ad-eIF5A1(K50A), with MEK1 inhibitor
Protocol: as §1
HT-29 cells were infected with 3000 infectious units per cell and experiments with A549 cells were performed using 1500 infectious units per cell.

HT-29 cells = assay: XTT and BrdU cell proliferation assays of HT-29 cells (siRNA, GC7); format: cell-based, human; conditions: 50 μM for 72 hours, BrdU incorporation
Protocol: HT-29 cells were transfected with siRNA on 96-well plates using Lipofectamine 2000 (Invitrogen). Metabolic activity of proliferating cells was measured with the XTT Cell Proliferation Kit (Roche Applied Science). The BrdU Cell Proliferation Kit (Roche Applied Science) was used to measure DNA synthesis following the manufacturer's protocol. For XTT assays performed following adenovirus infection, 5000 cells were plated per well in a 96-well plate. The next day cells were infected with Ad-lacZ, Ad-eIF5A1 and Ad-eIF5A1(K50A) (Ad-eIF5A1M) respectively with untreated cells as negative control and Actinomycin D treated cell as positive control. XTT substrate was added and A475 nm was measured with A690 nm as the reference.

eIF5A1 [3] = assay: 2-D gel electrophoresis and Western blot of eIF5A1 forms in HT-29 cells; format: cell-based, human; conditions: HT-29, beginning 1 hour after treatment, disappearing 24 hours after treatment
Protocol: For 2-D gel electrophoresis, HT-29 cell lysate was harvested in cold lysis buffer (7M Urea, 2M Thiourea, 30 mM Tris, 4% CHAPS, protease inhibitor cocktail), sonicated and cleared of debris by centrifugation. Protein concentration was determined using the Bradford method. The first dimensional isolelectric focusing was performed with the Ettan IPGphor Isoelectric Focusing System (Amersham Biosciences) according to the manufacture's instruction. Immobiline DryStrips (7 cm pH 4-7; Amersham Biosciences) were rehydrated in rehydration buffer (8M Urea, 2% CHAPS, 0.2% DTT, 0.5% pH 4-7 IPG buffer, 0.002% Bromophenol blue) along with cell lysate at room temperature for 12 hours. The isoelectric focusing was performed at 500 V for 30 min, 1000 V for 30 min, and 5000 V for 1 hour and 40 min. The protein on the IPG strip gel was then separated by SDS-PAGE and transferred to a PVDF membrane (Amersham Biosciences). Western blotting was performed using eIF5A antibody (BD Biosciences).

eIF5A1 [4] = assay: Western blot of eIF5A1 expression in normal colon fibroblasts; format: cell-based; conditions: 0.5 μg/ml, 24 hours
Protocol: Protein for Western blotting was isolated using boiling lysis buffer [2% SDS, 50 mM Tris-HCl (pH 7.4)]. Protein concentrations were determined using the Bicinchoninic Acid Kit (Sigma). For Western blotting, 5 μg of total protein was fractionated on a 12% SDS-polyacrylamide gel and transferred to a polyvinylidene difluoride membrane. The primary antibodies used were anti-eIF5A (BD Transduction Laboratories; mouse IgG) and anti-β-actin (Oncogene; mouse IgM), both at a dilution of 1:20,000 in 5% milk. The secondary antibodies were anti-mouse IgG conjugated to horseradish peroxidase (HRP; Sigma) and anti-mouse IgM-HRP (Oncogene). Antibody-protein complexes were visualized using the enhanced chemiluminescence method (ECL, Amersham Biosciences). Following detection of eIF5A, the blots were stripped according to the protocol provided by the ECL Plus Western blotting detection system and reprobed with anti-β-actin antibody to confirm equal loading.

eIF5A1 [5] = assay: Indirect immunofluorescence localization of eIF5A1 in HT-29 cells; format: cell-based, human
Protocol: HT-29 cells were cultured on poly-L-lysine-coated glass coverslips. Subconfluent cells were incubated for 16 hours with 200 Units of interferon gamma (IFN-γ; Roche Applied Science) followed by TNF-α (100 ng/ml; Leinco Technologies) for times varying from 10 minutes to 8 hours. Alternatively, cells were treated with 1.0 μg/ml Actinomycin D for increasing lengths of time from 30 minutes to 16 hours. The treated cells were fixed with 3% formaldehyde (methanol-free; Polysciences Inc.) for 20 minutes, washed twice for 5 minutes with PBS and once for 5 minutes with PBS containing 100 mM glycine, and permeabilized with 0.2% Triton X-100 in PBS for 4 minutes. Cells were then labeled for immunofluorescence using a standard protocol. The primary antibody was anti-eIF5A (BD Transduction Laboratories; mouse IgG) incubated at a dilution of 1:250 for 1 hour. The secondary antibody was anti-mouse IgG-AlexaFluor 488 (Molecular Probes) used at a dilution of 1:200 for 1 hour. Following antibody labeling, the nuclei were stained with Hoescht 33258, and the labeled cells were observed by fluorescent microscopy.

Pifithrin-a
effect of inhibitor on Ad-eIF5A1-induced accumulation and phosphorylation of p53 (p53): inhibited | effect of inhibitor on apoptosis induced by eIF5A1 [1]: decreases apoptosis

N#CC(=C(/N)Sc1ccccc1N)/C(C#N)=C(/N)Sc1ccccc1N [U1026]
activation of JNK [2]: inhibited the activation of JNK | p38 activation [2]: increased p38 activation | effect of inhibitor on Ad-eIF5A1-induced accumulation and phosphorylation of p53 (p53): inhibited | effect of inhibitor on apoptosis induced by eIF5A1 [1]: increases apoptosis

N=C(N)NCCCCCCCN [GC7, N1-guanyl-1,7-diaminoheptane]
effect on the growth of the cells (HT-29 cells): profound effect on the growth

Cc1c2oc3c(C)ccc(C(=O)N[C@@H]4C(=O)N[C@H](C(C)C)C(=O)N5CCC[C@H]5C(=O)N(C)CC(=O)N(C)[C@@H](C(C)C)C(=O)O[C@@H]4C)c3nc-2c(C(=O)N[C@@H]2C(=O)N[C@H](C(C)C)C(=O)N3CCC[C@H]3C(=O)N(C)CC(=O)N(C)[C@@H](C(C)C)C(=O)O[C@@H]2C)c(N)c1=O [Actinomycin D] (I: T[dV]P[Sar][NMeV] / II: T[dV]P[Sar][NMeV]; ester I:1-I:C, II:1-II:C; linker I:N-II:N via Actinocin(9to1))
deoxyhypusinated form of eIF5A1 (eIF5A1 [3]): increase in the presence of the deoxyhypusinated form of eIF5A1 | eIF5A1 protein expression (eIF5A1 [4]): up-regulated | time to shift of eIF5A1 from cytoplasmic to nuclear localization (eIF5A1 [5]): ≤ 90 min

O=C1c2ccccc2-c2n[nH]c3cccc1c23 [JNK inhibitor II]
effect of inhibitor on apoptosis induced by eIF5A1 [1]: increases apoptosis
